From US20140005163A1 (NOVARTIS AG, priority 2010, published 2014)

What was measured:
[1] = target: T1, PI3K alpha (Homo sapiens, UniProt P42336); test: PI3K alpha kinase assay (Kinase-Glo luminescence); type: biochemical
T1 construct: p85(iSH2) fusion partner (see partner chain) (N); His tag (C); made in house; host or cells: baculovirus; Tn5 (Trichoplusia ni) or TiniPro insect cells
Outline: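 Luminescent ATP-depletion assay (Kinase-Glo) with 10 nM PI3Kα and 10 μg/mL phosphatidylinositol as lipid substrate at 1 μM ATP. Incubation lasts 60 min at room temperature.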

[2] = target: T2, PI3K beta (Homo sapiens, UniProt P42338); test: PI3K beta kinase assay (Kinase-Glo luminescence); type: biochemical
T2 construct: for the full-length p110-b subunit are generated and fused by overlapping PCR; p85(iSH2) fusion partner (see partner chain) (N); His tag (C); made in house; host or cells: baculovirus; Tn5 (Trichoplusia ni) or TiniPro insect cells
T2 sequence (P42338 with tags, fused parts or gaps limits assumed): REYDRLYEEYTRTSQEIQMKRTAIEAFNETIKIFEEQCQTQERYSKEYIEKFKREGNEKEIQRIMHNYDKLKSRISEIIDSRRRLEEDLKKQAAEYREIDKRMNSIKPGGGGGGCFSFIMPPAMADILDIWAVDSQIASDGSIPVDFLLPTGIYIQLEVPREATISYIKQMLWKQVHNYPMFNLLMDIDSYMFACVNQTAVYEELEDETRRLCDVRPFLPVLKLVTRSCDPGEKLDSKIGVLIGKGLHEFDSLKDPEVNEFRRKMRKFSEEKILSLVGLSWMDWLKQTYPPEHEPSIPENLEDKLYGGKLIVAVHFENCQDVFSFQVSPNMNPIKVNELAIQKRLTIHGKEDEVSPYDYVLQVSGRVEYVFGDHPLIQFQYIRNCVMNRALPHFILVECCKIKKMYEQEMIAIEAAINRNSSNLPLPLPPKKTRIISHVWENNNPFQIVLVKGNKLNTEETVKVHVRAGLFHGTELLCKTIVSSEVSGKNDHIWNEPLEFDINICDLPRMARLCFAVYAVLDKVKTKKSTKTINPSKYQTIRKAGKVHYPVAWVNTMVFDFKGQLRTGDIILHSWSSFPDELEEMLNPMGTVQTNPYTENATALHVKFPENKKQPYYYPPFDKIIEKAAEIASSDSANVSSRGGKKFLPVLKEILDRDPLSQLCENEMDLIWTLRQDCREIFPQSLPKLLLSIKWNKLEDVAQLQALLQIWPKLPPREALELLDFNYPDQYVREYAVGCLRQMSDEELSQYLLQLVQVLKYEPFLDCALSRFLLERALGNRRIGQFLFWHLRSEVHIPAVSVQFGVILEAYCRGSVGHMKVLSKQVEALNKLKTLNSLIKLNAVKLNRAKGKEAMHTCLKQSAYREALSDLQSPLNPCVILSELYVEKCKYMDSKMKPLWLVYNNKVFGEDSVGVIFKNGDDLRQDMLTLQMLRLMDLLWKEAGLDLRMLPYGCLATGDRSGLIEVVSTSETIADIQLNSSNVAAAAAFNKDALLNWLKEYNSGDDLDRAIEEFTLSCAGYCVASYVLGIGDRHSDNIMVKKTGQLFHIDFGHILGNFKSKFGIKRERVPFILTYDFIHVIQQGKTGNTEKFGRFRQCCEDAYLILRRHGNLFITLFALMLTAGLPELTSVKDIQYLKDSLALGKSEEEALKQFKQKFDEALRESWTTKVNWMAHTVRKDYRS
Outline: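 p110β full-length/p85 iSH2 construct (BV-949), 25 nM, with 1 μM ATP and 10 μg/mL phosphatidylinositol in 10 mM Tris pH 7.5, 3 mM MgCl2, 50 mM NaCl, 0.05% CHAPS, 1 mM DTT. 60 min at room temperature; ATP remaining read by Kinase-Glo luminescence. IC50 from 8-point four-parameter logistic fit.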

[3] = target: T3, mTOR (Homo sapiens, UniProt P42345); test: Biochemical assay for m-TOR by TR-FRET; settings: 8 μM ATP, 400 nM GFP-4EBP1, 0.5 nM mTOR
T3 construct: purchased Invitrogen Corporation (Carlsbad/CA, USA) PV4753
T3 sequence (P42345 1360-2549 limits assumed): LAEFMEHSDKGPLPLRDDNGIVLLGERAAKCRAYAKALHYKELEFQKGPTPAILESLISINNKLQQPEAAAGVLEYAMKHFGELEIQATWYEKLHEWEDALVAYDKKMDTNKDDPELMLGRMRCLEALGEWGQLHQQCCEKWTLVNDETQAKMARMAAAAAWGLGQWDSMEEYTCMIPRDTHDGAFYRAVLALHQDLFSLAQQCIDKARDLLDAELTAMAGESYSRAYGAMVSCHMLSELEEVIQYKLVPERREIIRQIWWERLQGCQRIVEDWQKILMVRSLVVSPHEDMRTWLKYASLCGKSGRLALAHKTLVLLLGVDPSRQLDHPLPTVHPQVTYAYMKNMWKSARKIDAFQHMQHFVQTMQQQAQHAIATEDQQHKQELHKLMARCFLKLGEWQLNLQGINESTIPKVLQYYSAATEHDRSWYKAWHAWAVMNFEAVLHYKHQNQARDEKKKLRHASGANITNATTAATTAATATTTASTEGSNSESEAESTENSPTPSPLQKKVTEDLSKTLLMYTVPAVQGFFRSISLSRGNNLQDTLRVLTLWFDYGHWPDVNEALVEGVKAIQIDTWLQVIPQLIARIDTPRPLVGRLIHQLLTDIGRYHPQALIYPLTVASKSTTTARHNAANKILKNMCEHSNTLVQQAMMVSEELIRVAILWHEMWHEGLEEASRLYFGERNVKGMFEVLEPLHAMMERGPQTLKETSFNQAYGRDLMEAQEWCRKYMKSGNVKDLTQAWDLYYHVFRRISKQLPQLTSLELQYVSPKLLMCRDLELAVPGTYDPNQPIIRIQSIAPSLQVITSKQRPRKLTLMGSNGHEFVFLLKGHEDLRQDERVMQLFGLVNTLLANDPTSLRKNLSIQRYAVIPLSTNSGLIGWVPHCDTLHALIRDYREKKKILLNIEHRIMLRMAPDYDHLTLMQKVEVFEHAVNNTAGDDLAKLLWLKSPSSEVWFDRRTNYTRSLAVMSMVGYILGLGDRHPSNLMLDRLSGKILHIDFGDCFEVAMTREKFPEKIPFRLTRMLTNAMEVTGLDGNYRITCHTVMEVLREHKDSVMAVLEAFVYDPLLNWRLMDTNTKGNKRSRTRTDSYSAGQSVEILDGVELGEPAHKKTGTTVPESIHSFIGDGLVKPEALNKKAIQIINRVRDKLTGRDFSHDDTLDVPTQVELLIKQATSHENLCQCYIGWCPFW
Outline: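 mTOR (0.5 nM) was incubated at rt with ATP (8 μM final) and GFP-4EBP1 (400 nM final) in 50 mM HEPES pH 7.5, 10 mM MnCl2, 50 mM NaCl, 1 mM EGTA, 1 mM DTT. EDTA stop with Tb3+-anti-p4EBP1 [pThr46] antibody (0.5 nM); TR-FRET read 15 min later.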

T1 sequence (P42336 with tags, fused parts or gaps limits assumed): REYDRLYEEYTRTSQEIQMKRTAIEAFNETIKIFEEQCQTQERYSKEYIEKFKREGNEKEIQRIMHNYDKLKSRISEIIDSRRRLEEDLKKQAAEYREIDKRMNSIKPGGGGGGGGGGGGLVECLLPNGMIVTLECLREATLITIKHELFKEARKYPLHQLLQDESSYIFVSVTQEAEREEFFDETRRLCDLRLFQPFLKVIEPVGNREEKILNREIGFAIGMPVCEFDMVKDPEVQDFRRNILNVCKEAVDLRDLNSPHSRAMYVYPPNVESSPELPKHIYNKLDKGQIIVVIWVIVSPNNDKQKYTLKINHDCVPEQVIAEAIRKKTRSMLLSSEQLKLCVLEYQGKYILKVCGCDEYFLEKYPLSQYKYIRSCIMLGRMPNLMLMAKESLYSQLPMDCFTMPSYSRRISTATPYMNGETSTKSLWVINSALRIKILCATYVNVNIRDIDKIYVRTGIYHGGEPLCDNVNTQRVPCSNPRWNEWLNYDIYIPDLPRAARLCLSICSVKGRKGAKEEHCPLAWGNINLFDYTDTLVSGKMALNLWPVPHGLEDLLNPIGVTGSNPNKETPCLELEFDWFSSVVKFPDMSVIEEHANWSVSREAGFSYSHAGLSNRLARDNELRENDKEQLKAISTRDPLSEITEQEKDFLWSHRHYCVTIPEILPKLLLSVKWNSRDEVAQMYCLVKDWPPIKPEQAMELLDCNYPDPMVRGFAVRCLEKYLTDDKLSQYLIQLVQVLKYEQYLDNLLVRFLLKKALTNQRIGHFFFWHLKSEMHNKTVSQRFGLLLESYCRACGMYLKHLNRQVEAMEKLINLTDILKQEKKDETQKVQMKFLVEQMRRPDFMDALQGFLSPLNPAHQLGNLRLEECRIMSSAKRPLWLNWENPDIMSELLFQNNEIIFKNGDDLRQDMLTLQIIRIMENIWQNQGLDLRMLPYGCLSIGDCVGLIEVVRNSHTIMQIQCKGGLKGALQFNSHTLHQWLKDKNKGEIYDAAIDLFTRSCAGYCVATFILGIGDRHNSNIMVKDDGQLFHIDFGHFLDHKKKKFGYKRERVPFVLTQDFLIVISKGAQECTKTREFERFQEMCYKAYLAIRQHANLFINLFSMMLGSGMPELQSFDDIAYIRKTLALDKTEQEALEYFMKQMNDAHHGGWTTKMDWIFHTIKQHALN

Row | SMILES | IC50 [1] [nM] | IC50 [2] [nM] | IC50 [3] [nM]
1 | Cc1nn(C)cc1-n1c(=O)n(C)c2cnc3ccc(-c4cnc(N)nc4)cc3c21 [Example 81.1, 8-(2-Amino-pyrimidin-5-yl)-1-(1,3-dimethyl-1H-pyrazol-4-yl)-3-methyl-1,3-dihydro-imidazo[4,5-c]quinolin-2-one] | 75 | 91 | 4
2 | Cc1nn(C)cc1-n1c(=O)n(C)c2cnc3ccc(-c4cc(O)cc(C(F)(F)F)c4)cc3c21 [Example 34, 1-(1,3-Dimethyl-1H-pyrazol-4-yl)-8-(3-hydroxy-5-trifluoromethyl-phenyl)-3-methyl-1,3-dihydro-imidazo[4,5-c]quinolin-2-one] | 7 | 15 | 133
3 | CCNc1cc(-c2ccc3ncc4c(c3c2)n(-c2cn(C)nc2C)c(=O)n4C)cnc1COC [Example 156, 1-(1,3-Dimethyl-1H-pyrazol-4-yl)-8-(5-ethylamino-6-methoxymethyl-pyridin-3-yl)-3-methyl-1,3-dihydro-imidazo[4,5-c]quinolin-2-one] | 16 | 29 | 5
4 | CCCOc1ccc(-c2ccc3ncc4c(c3c2)n(-c2cn(C)nc2C)c(=O)n4C)cn1 [Example 55, 1-(1,3-Dimethyl-1H-pyrazol-4-yl)-3-methyl-8-(6-propoxy-pyridin-3-yl)-1,3-dihydro-imidazo[4,5-c]quinolin-2-one] | 56 | 951 | 25
5 | Cc1nn(C(C)C)cc1-n1c(=O)n(C)c2cnc3ccc(-c4cnc(N(C)C)nc4)cc3c21 [Example 6.1, 8-(2-Dimethylamino-pyrimidin-5-yl)-1-(1-isopropyl-3-methyl-1H-pyrazol-4-yl)-3-methyl-1,3-dihydro-imidazo[4,5-c]quinolin-2-one] | 29 | 227 | 30
6 | COCCNC(=O)c1cc(-c2ccc3ncc4c(c3c2)n(-c2cn(C)nc2C)c(=O)n4C)cnc1N [Example 226, 2-Amino-5-[1-(1,3-dimethyl-1H-pyrazol-4-yl)-3-methyl-2-oxo-2,3-dihydro-1H-imidazo[4,5-c]quinolin-8-yl]-N-(2-methoxy-ethyl)-nicotinamide] | 33 | 71 | 169
7 | Cc1nn(C)cc1-n1c(=O)n(C)c2cnc3ccc(-c4cnc(F)c(N(C)C)c4)cc3c21 [Example 151, 8-(5-Dimethylamino-6-fluoro-pyridin-3-yl)-1-(1,3-dimethyl-1H-pyrazol-4-yl)-3-methyl-1,3-dihydro-imidazo[4,5-c]quinolin-2-one] | 6 | 21 | 15
8 | Cc1nn(C(C)C)cc1-n1c(=O)n(C)c2cnc3ccc(-c4ccc(C(N)=O)nc4)cc3c21 [Example 112, 5-[1-(1-Isopropyl-3-methyl-1H-pyrazol-4-yl)-3-methyl-2-oxo-2,3-dihydro-1H-imidazo[4,5-c]quinolin-8-yl]-pyridine-2-carboxylic acid amide] | 79 | 391 | 20
9 | Cc1nn(C(C)C)cc1-n1c(=O)n(C)c2cnc3ccc(-c4cncc(C(O)(CF)CF)c4)cc3c21 [Example 219, 8-[5-(2-Fluoro-1-fluoromethyl-1-hydroxy-ethyl)-pyridin-3-yl]-1-(1-isopropyl-3-methyl-1H-pyrazol-4-yl)-3-methyl-1,3-dihydro-imidazo[4,5-c]quinolin-2-one] | 12 | 49 | 139
10 | CCOC(C)(C)c1cncc(-c2ccc3ncc4c(c3c2)n(-c2cn(C)nc2C)c(=O)n4C)c1 [Example 240, 1-(1,3-Dimethyl-1H-pyrazol-4-yl)-8-[5-(1-ethoxy-1-methyl-ethyl)-pyridin-3-yl]-3-methyl-1,3-dihydro-imidazo[4,5-c]quinolin-2-one] | 6 | 91 | 79
11 | CNc1ncc(-c2ccc3ncc4c(c3c2)n(-c2cn(C(C)C)nc2C)c(=O)n4C)cc1CO [Example 171, 8-(5-Hydroxymethyl-6-methylamino-pyridin-3-yl)-1-(1-isopropyl-3-methyl-1H-pyrazol-4-yl)-3-methyl-1,3-dihydro-imidazo[4,5-c]quinolin-2-one] | 32 | 145 | < 3
12 | Cc1ncc(-c2ccc3ncc4c(c3c2)n(-c2cn(C)nc2C)c(=O)n4C)cc1N(C)S(C)(=O)=O [Example 75, N-{5-[1-(1,3-Dimethyl-1H-pyrazol-4-yl)-3-methyl-2-oxo-2,3-dihydro-1H-imidazo[4,5-c]quinolin-8-yl]-2-methyl-pyridin-3-yl}-N-methyl-methanesulfonamide] | 14 | 37 | 260
13 | COCc1cc(-c2ccc3ncc4c(c3c2)n(-c2cn(C)nc2Cl)c(=O)n4C)cnc1OC [Example 201, 1-(3-Chloro-1-methyl-1H-pyrazol-4-yl)-8-(6-methoxy-5-methoxymethyl-pyridin-3-yl)-3-methyl-1,3-dihydro-imidazo[4,5-c]quinolin-2-one] | 4 | 6 | 27
14 | COc1ncc(-c2ccc3ncc4c(c3c2)n(-c2cn(C)nc2C)c(=O)n4C)cc1N(C)C(C)=O [Example 62, N-{5-[1-(1,3-Dimethyl-1H-pyrazol-4-yl)-3-methyl-2-oxo-2,3-dihydro-1H-imidazo[4,5-c]quinolin-8-yl]-2-methoxy-pyridin-3-yl}-N-methyl-acetamide] | 61 | 83 | 642
15 | COc1ccc(-c2ccc3ncc4c(c3c2)n(-c2cnn(C)c2C)c(=O)n4C)cn1 [Example 2.9, 1-(1,5-Dimethyl-1H-pyrazol-4-yl)-8-(6-methoxy-pyridin-3-yl)-3-methyl-1,3-dihydro-imidazo[4,5-c]quinolin-2-one] | 43 | 166 | 151

Continued, values first:

Row | IC50 [1] [nM] | IC50 [2] [nM] | IC50 [3] [nM] | SMILES
16 | 26 | 302 | 5 | CNc1ccc(-c2ccc3ncc4c(c3c2)n(-c2cn(C(C)C)nc2C)c(=O)n4C)cn1 [Example 118.1, 1-(1-isopropyl-3-methyl-1H-pyrazol-4-yl)-3-methyl-8-(6-methylamino-pyridin-3-yl)-1,3-dihydro-imidazo[4,5-c]quinolin-2-one]
17 | 9 | 10 | 4 | CNc1cc(-c2ccc3ncc4c(c3c2)n(-c2cn(C)nc2C)c(=O)n4C)cnc1CO [Example 158.1, 1-(1,3-Dimethyl-1H-pyrazol-4-yl)-8-(6-hydroxymethyl-5-methylamino-pyridin-3-yl)-3-methyl-1,3-dihydro-imidazo[4,5-c]quinolin-2-one]
18 | 13 | 29 | 56 | CCn1cc(-n2c(=O)n(C)c3cnc4ccc(-c5cncc(C6(C#N)CCC6)c5)cc4c32)c(C)n1 [Example 221.2, 1-{5-[1-(1-Ethyl-3-methyl-1H-pyrazol-4-yl)-3-methyl-2-oxo-2,3-dihydro-1H-imidazo[4,5-c]quinolin-8-yl]-pyridin-3-yl}-cyclobutanecarbonitrile]
19 | 4 | 6 | 6 | COc1cc(-c2ccc3ncc4c(c3c2)n(-c2cn(C)nc2Cl)c(=O)n4C)cnc1CO [Example 194.2, 1-(3-chloro-1-methyl-1H-pyrazol-4-yl)-8-(6-hydroxymethyl-5-methoxy-pyridin-3-yl)-3-methyl-1,3-dihydro-imidazo[4,5-c]quinolin-2-one]
20 | 16 | 695 | 9 | CNc1ccc(-c2ccc3ncc4c(c3c2)n(-c2cn(CC(=O)N(C)C)nc2C)c(=O)n4C)cn1 [Example 118.3, N,N-Dimethyl-2-{3-methyl-4-[3-methyl-8-(6-methylamino-pyridin-3-yl)-2-oxo-2,3-dihydro-imidazo[4,5-c]quinolin-1-yl]-pyrazol-1-yl}-acetamide]
21 | 17 | 68 | 13 | Cc1ncc(-c2ccc3ncc4c(c3c2)n(-c2cn(C)nc2C)c(=O)n4C)cc1N [Example 88.2, 8-(5-Amino-6-methyl-pyridin-3-yl)-1-(1,3-dimethyl-1H-pyrazol-4-yl)-3-methyl-1,3-dihydro-imidazo[4,5-c]quinolin-2-one]
22 | 50 | 207 | 9 | CNc1ncc(-c2ccc3ncc4c(c3c2)n(-c2cn(C(C)C)nc2C)c(=O)n4C)cc1Cl [Example 146.3, 8-(5-Chloro-6-methylamino-pyridin-3-yl)-1-(1-isopropyl-3-methyl-1H-pyrazol-4-yl)-3-methyl-1,3-dihydro-imidazo[4,5-c]quinolin-2-one]
23 | 18 | 287 | 6 | Cc1nn(C)cc1-n1c(=O)n(C)c2cnc3ccc(-c4cnc(N)c(F)c4)cc3c21 [Example 142.2, 8-(6-Amino-5-fluoro-pyridin-3-yl)-1-(1,3-dimethyl-1H-pyrazol-4-yl)-3-methyl-1,3-dihydro-imidazo[4,5-c]quinolin-2-one]
